Target: PAI-1 (Homo sapiens, UniProt P05121)
Assay: PAI chromogenic substrate assay (first S2251 assay, tPA/plasminogen system)
Assay type: biochemical
In short: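 Compound preincubated with PAI-1, then added to a tPA/plasminogen system; residual tPA activity generates plasmin, which cleaves chromogenic substrate S2251, releasing p-nitroaniline read at 405 nm.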

Sequence of PAI-1 (P05121 24-402): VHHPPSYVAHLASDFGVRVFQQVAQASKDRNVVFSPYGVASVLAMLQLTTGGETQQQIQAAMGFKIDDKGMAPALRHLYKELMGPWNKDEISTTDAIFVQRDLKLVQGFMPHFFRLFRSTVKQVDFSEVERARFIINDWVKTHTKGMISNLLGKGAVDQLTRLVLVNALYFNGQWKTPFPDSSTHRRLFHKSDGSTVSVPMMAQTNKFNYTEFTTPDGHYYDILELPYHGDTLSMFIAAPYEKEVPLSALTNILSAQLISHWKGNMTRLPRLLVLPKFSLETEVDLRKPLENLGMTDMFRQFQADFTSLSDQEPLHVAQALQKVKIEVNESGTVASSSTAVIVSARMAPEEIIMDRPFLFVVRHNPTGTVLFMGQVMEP

Inhibition of PAI-1 in the first S2251 chromogenic substrate assay (Concentration 6.25 μm)	Inhibition of PAI-1 in the first S2251 chromogenic substrate assay (Concentration 12.5 μm)	Inhibition of PAI-1 in the first S2251 chromogenic substrate assay (Concentration 25 μm)	Inhibition of PAI-1 in the first S2251 chromogenic substrate assay (Concentration 50 μm)	Inhibition of PAI-1 in the first S2251 chromogenic substrate assay (Concentration 100 μm)	Compound
–	0%	1%	9%	53%	COc1ccc(/C=c2\[nH]c(=O)/c(=C/c3ccc(C(N)=O)cc3)[nH]c2=O)cc1 [Compound 80, 4-[(3Z,6Z)-6-(4-Methoxybenzylidene)-2,5-dioxopiperazin-3-ylidene]methylbenzamide]
–	1%	1%	1%	56%	COC(=O)Nc1ccc(/C=c2\[nH]c(=O)/c(=C/c3ccc(OC)cc3)[nH]c2=O)cc1 [Compound 83, (3Z,6Z)-3-(4-Methoxybenzylidene)-6-(4-methoxycarbonylaminobenzylidene)-2,5-piperazinedione]
1%	2%	10%	38%	52%	COc1ccc(/C=c2\[nH]c(=O)/c(=C/c3ccc(O)cc3Cl)[nH]c2=O)cc1 [Compound 84, (3Z,6Z)-3-(2-Chloro-4-hydroxybenzylidene)-6-(4-methoxybenzylidene)-2,5-piperazinedione]
31%	41%	48%	37%	23%	CC(=O)Nc1ccc(/C=c2\[nH]c(=O)/c(=C/c3ccc(N(C)C)cc3)[nH]c2=O)cc1 [Compound 86, (3Z,6Z)-3-(4-Acetamidobenzylidene)-6-(4-dimethylaminobenzylidene)-2,5-piperazinedione]
0%	40%	60%	49%	41%	COc1ccc(/C=c2\[nH]c(=O)/c(=C/c3ccc(NC(=O)CO)cc3)[nH]c2=O)cc1 [Compound 88, (3Z,6Z)-3-(4-Hydroxyacetylaminobenzylidene)-6-(4-methoxybenzylidene)-2,5-piperazinedione]
0%	6%	33%	85%	75%	COc1ccc(/C=c2\[nH]c(=O)/c(=C/c3ccccc3)[nH]c2=O)cc1OC [Compound 90, (3Z,6Z)-6-Benzylidene-3-(3,4-dimethoxybenzylidene)-2,5-piperazinedione]
0%	0%	3%	72%	50%	COc1ccc(/C=c2\[nH]c(=O)/c(=C/c3ccc(OC)c(OC)c3)[nH]c2=O)cc1 [Compound 91, (3Z,6Z)-3-(3,4-Dimethoxybenzylidene)-6-(4-methoxybenzylidene)-2,5-piperazinedione]

Further lines, the molecule ahead of its results:

Compound	Inhibition of PAI-1 in the first S2251 chromogenic substrate assay (Concentration 6.25 μm)	Inhibition of PAI-1 in the first S2251 chromogenic substrate assay (Concentration 12.5 μm)	Inhibition of PAI-1 in the first S2251 chromogenic substrate assay (Concentration 25 μm)	Inhibition of PAI-1 in the first S2251 chromogenic substrate assay (Concentration 50 μm)	Inhibition of PAI-1 in the first S2251 chromogenic substrate assay (Concentration 100 μm)
CC(=O)SCc1ccc(/C=c2\[nH]c(=O)/c(=C/c3ccccc3)[nH]c2=O)cc1 [Compound 76, (3Z,6Z)-6-Benzylidene-3-(4-thioacetoxymethylbenzylidene)-2,5-piperazinedione]	2%	5%	50%	75%	66%
CC(=O)Nc1ccc(/C=c2\[nH]c(=O)/c(=C/c3ccc(F)cc3F)[nH]c2=O)cc1 [Compound 77]	1%	61%	80%	66%	33%
CC(=O)Nc1ccc(/C=c2\[nH]c(=O)/c(=C/c3ccccc3C(F)(F)F)[nH]c2=O)cc1 [Compound 78, (3Z,6Z)-6-(4-Acetamidobenzylidene)-3-(2-trifluoromethylbenzylidene)-2,5-piperazinedione]	2%	4%	36%	57%	30%
CC(=O)Nc1ccc(/C=c2\[nH]c(=O)/c(=C/c3ccccc3Br)[nH]c2=O)cc1 [Compound 79, (3Z,6Z)-6-(4-Acetamidobenzylidene)-3-(2-bromobenzylidene)-2,5-piperazinedione]	1%	2%	27%	55%	42%
COc1ccc(/C=c2\[nH]c(=O)/c(=C/c3ccc(OC(=O)C(C)(C)C)cc3)[nH]c2=O)cc1 [Compound 81, (3Z,6Z)-3-(4-Methoxybenzylidene)-6-(4-trimethylacetoxybenzylidene)-2,5-piperazinedione]	–	0%	1%	1%	64%
CC(=O)Nc1ccc(/C=c2\[nH]c(=O)/c(=C/c3ccc(OC(=O)C(C)(C)C)cc3)[nH]c2=O)cc1 [Compound 82, (3Z,6Z)-3-(4-Acetamidobenzylidene)-6-(4-trimethylacetoxybenzylidene)-2,5-piperazinedione]	–	1%	1%	3%	80%
O=c1[nH]/c(=C\c2ccc(O)cc2Cl)c(=O)[nH]/c1=C\c1ccccc1 [Compound 85, (3Z,6Z)-6-Benzylidene-3-(2-chloro-4-hydroxybenzylidene)-2,5-piperazinedione]	13%	27%	43%	49%	35%
COc1ccc(/C=c2\[nH]c(=O)/c(=C/c3ccc(NC(=O)COC(C)=O)cc3)[nH]c2=O)cc1 [Compound 87, (3Z,6Z)-3-(4-Acetoxyacetylaminobenzylidene)-6-(4-methoxybenzylidene)-2,5-piperazinedione]	0%	28%	70%	81%	78%
CN(C)c1ccc(/C=c2\[nH]c(=O)/c(=C/c3ccccc3)[nH]c2=O)c2ccccc12 [Compound 89]	7%	40%	66%	55%	63%
